Here are results for 3 compounds from patent publication US20120128607A1, “EXTRACT OF WHOLE SEEDS OF MORNINGA SP, AND USE THEREOF IN COSMETIC AND/OR DERMATOLOGICAL COMPOSITIONS” (PIERRE FABRE DERMO-COSMETIQUE, priority 2009, published 2012).

The test system of experiment [1] is hDES2. Put plainly: Model of differentiation of normal human keratinocytes: gene expression (mRNA) of hDES2. It counts as cell-based. As to conditions: NHK, with respect to non-treated cells. An excerpt: (§1) First, the effects of extracts according to the invention have first been studied from a model of differentiated normal human keratinocytes (NHK).
(§2) The effect of the extracts of Moringa sp. on the gene expression of different proteins involved in the synthesis or the transport of the epidermal lipids, ABC G1 and hDES2, has been analyzed.
(§3) The results are expressed in percentage of stimulation of the gene expression (mRNA) of different markers of the epidermal differentiation expressed by the NHKs (with respect to the non-treated cells). A significant positive effect is considered from 100% of stimulation.

Experiment [2] has as its system ABC G1. Put plainly: Model of differentiation of normal human keratinocytes: gene expression (mRNA) of ABC G1. It counts as cell-based. As to conditions: NHK, with respect to non-treated cells.
From the text: as §1, §2, §3

A short description of experiment [3]: DPPH test (antioxidant activity). As to conditions: methanolic solution of DPPH at 0.06 mM, absorption at 517 nm. An excerpt:
The antioxidant activity of the seed extract of Moringa oleifera according to the present invention has been evaluated with the DPPH test. This test is based on the measure of the capacity for trapping antioxidants of the stable radical 2.2-diphenyl-1-picrylhydrazyl (DPPH). This stable radical, having absorption at 517 nm, is reduced to the corresponding hydrazine when it reacts with a hydrogen donor.
The results obtained are expressed in IC50, corresponding to the concentration giving 50% reduction in absorbance of a methanolic solution of DPPH at 0.06 mM.
On the technique in general: DPPH is a stable violet radical that fades when it is reduced.

`CN(CCOc1ccc(CC2SC(=O)NC2=O)cc1)c1ccccn1` (centres unmarked) [Roziglitazone, roziglitazone]: the “percentage of stimulation of the gene expression (mRNA) of hDES2” value in experiment [1] (10 μM) is listed as 190%. Also, the “percentage of stimulation of the gene expression (mRNA) of ABC G1” value in experiment [2] (10 μM) is given as 330%. For Vitamin E, the “IC50 (concentration giving 50% reduction in absorbance of DPPH solution)” value in experiment [3] fell in the range of 6 to 10 µg/mL. Consider `C=C1CC[C@H](O)C/C1=C/C=C1\CCC[C@]2(C)[C@@H]([C@H](C)CCCC(C)C)CC[C@@H]12` [Vit D3, vitamin D3], for which, in experiment [1] (5 μM), the “percentage of stimulation of the gene expression (mRNA) of hDES2” value is given as 780%. For the same compound, the “percentage of stimulation of the gene expression (mRNA) of ABC G1” value in experiment [2] (5 μM) is given as 170%.
